According to the CheMixHub viscosity set:
Several values for one entry are separate records, joined by “and”; a condition that tells them apart may be missing. Equal values may be shown once. ± gives the uncertainty stated by the source.

N#CCCO
Conditions | viscosity [mPa·s]
298 K, 101 kPa | 3.571 ± 0.031

CCCO
Conditions | viscosity
293.15 K, 101.33 kPa | 2.185 ± 0.046 mPa·s and 2.327 ± 0.023 mPa·s
295.15 K, 101 kPa | 2.12 ± 0.056 mPa·s
298.15 K, 100 kPa | 1.91 ± 0.06 mPa·s
298.15 K, 101.31 kPa | 2.004 ± 0.052 mPa·s
298.15 K, 101.33 kPa | 1.743 ± 0.041 mPa·s
303 K, 101 kPa | 1.634 mPa·s
303 K, 101.33 kPa | 1.769 ± 0.016 mPa·s
303.15 K, 101 kPa | 1.777 ± 0.018 mPa·s and 1.591 ± 0.02 mPa·s and 1.768 ± 0.034 mPa·s
303.15 K, 101.3 kPa | 1.6 ± 0.1 mPa·s and 1.784 ± 0.021 mPa·s
303.16 K, 101 kPa | 1.92 ± 0.23 mPa·s
308 K, 101.3 kPa | 1.461 ± 0.15 mPa·s
308.15 K, 101.3 kPa | 1.488 ± 0.037 mPa·s and 1.4 ± 0.1 mPa·s
308.15 K, 101.33 kPa | 1.486 ± 0.009 mPa·s and 1.466 ± 0.012 mPa·s and 1.376 ± 0.033 mPa·s
311 K, 101.3 kPa | 1.43 ± 0.023 mPa·s
313 K, 101.3 kPa | 1.317 ± 0.13 mPa·s
313.15 K, 101.3 kPa | 1.3 ± 0.1 mPa·s
313.15 K, 101.33 kPa | 1.319 ± 0.008 mPa·s
318.15 K, 101.3 kPa | 1.1 ± 0.1 mPa·s
319 K, 101.3 kPa | 1.197 ± 0.02 mPa·s
323 K, 101 kPa | 0.9714 ± 0.014 mPa·s
323 K, 101.3 kPa | 1.165 ± 0.12 mPa·s
323.15 K, 101 kPa | 1.15 ± 0.024 mPa·s
323.15 K, 101.3 kPa | 0.92 ± 0.05 mPa·s
323.15 K, 101.33 kPa | 1.136 ± 0.069 mPa·s and 1.166 ± 0.012 mPa·s

NCCCN
viscosity
Conditions | 293.15 K | 298.15 K | 303.15 K | 308.15 K | 313.15 K | 318.15 K | 323.15 K
100 kPa | 1.965 ± 0.033 mPa·s and 1.96 ± 0.03 mPa·s | 1.769 ± 0.03 mPa·s and 1.74 ± 0.03 mPa·s | 1.506 ± 0.025 mPa·s and 1.57 ± 0.03 mPa·s | 1.465 ± 0.024 mPa·s and 1.39 ± 0.03 mPa·s | 1.259 ± 0.021 mPa·s and 1.26 ± 0.03 mPa·s | 1.181 ± 0.02 mPa·s and 1.07 ± 0.03 mPa·s | –
101 kPa | – | – | 1.608 ± 0.013 mPa·s and 1.594 ± 0.019 mPa·s | 1.445 ± 0.012 mPa·s and 1.423 ± 0.017 mPa·s | 1.306 ± 0.01 mPa·s and 1.297 ± 0.015 mPa·s | 1.191 ± 0.0096 mPa·s and 1.181 ± 0.014 mPa·s | 1.09 ± 0.0088 mPa·s and 1.07 ± 0.013 mPa·s
101.3 kPa | 2.03 ± 0.03 mPa·s | 1.83 ± 0.03 mPa·s | 1.62 ± 0.03 mPa·s | 1.42 ± 0.03 mPa·s | 1.23 ± 0.03 mPa·s | 1.13 ± 0.03 mPa·s | –
101.33 kPa | 1.93 ± 0.06 mPa·s | 1.67 ± 0.05 mPa·s | 1.52 ± 0.05 mPa·s and 1.594 ± 0.019 mPa·s | 1.37 ± 0.04 mPa·s and 1.423 ± 0.017 mPa·s | 1.22 ± 0.04 mPa·s and 1.297 ± 0.015 mPa·s | 1.11 ± 0.03 mPa·s and 1.181 ± 0.014 mPa·s | 1.07 ± 0.013 mPa·s

Oc1ccccc1
Conditions | viscosity
293.15 K, 101 kPa | 11.04 ± 0.14 mPa·s and 11.04 ± 0.12 mPa·s and 11.04 ± 0.16 mPa·s
293.2 K, 101 kPa | 11.04 ± 0.16 mPa·s
293.25 K, 101 kPa | 11.04 ± 0.15 mPa·s and 11.04 ± 0.16 mPa·s
298 K, 101.3 kPa | 9.41 ± 0.14 mPa·s
298.15 K, 101 kPa | 8.945 ± 0.13 mPa·s
302.95 K, 101 kPa | 7.09 ± 0.08 mPa·s and 7.1 ± 0.085 mPa·s
303 K, 101.3 kPa | 7.553 ± 0.093 mPa·s
303.05 K, 101 kPa | 7.09 ± 0.09 mPa·s
303.1 K, 101 kPa | 7 ± 0.15 mPa·s
303.15 K, 101.33 kPa | 7 ± 0.07 mPa·s
308 K, 101.3 kPa | 6.106 ± 0.064 mPa·s
308.1 K, 101 kPa | 5.55 ± 0.11 mPa·s
308.15 K, 101 kPa | 6.032 ± 0.16 mPa·s and 4.649 ± 0.057 mPa·s
308.15 K, 101.33 kPa | 5.969 ± 0.072 mPa·s
313 K, 101.3 kPa | 4.971 ± 0.052 mPa·s
313.05 K, 101 kPa | 4.79 ± 0.05 mPa·s
313.25 K, 101 kPa | 4.74 ± 0.06 mPa·s
313.35 K, 101 kPa | 4.74 ± 0.05 mPa·s
318 K, 101.3 kPa | 4.056 ± 0.046 mPa·s
322.95 K, 101 kPa | 3.28 ± 0.04 mPa·s
323.1 K, 101 kPa | 3.2 ± 0.073 mPa·s and 3.2 ± 0.065 mPa·s
323.15 K, 101.33 kPa | 3.2 ± 0.032 mPa·s and 3.432 ± 0.034 mPa·s

CNc1ccccc1
Conditions | viscosity [mPa·s]
298 K, 101 kPa | 1.963 ± 0.05
298 K, 101.3 kPa | 1.963 ± 0.052
298.15 K, 101 kPa | 2.02 ± 0.03
303 K, 101.3 kPa | 1.717 ± 0.046
303 K, 101.33 kPa | 1.751 ± 0.045
303.15 K, 101 kPa | 1.55 ± 0.04
308 K, 101.3 kPa | 1.538 ± 0.041
308.15 K, 101.33 kPa | 1.515 ± 0.051
313 K, 101.3 kPa | 1.386 ± 0.037
318 K, 101.3 kPa | 1.251 ± 0.034
323.15 K, 101 kPa | 1.401 ± 0.12

OC(C(F)(F)F)C(F)(F)F
101 kPa
Conditions | viscosity
298.15 K | 1.579 ± 0.023 mPa·s and 1.619 ± 0.013 mPa·s
303.15 K | 1.361 ± 0.011 mPa·s
313.15 K | 0.989 ± 0.014 mPa·s and 1 ± 0.008 mPa·s
323.15 K | 0.765 ± 0.011 mPa·s and 0.788 ± 0.007 mPa·s

CCCCCCn1cc[n+](C)c1.F[B-](F)(F)F
101 kPa
Conditions | viscosity
298.15 K | 171.8 ± 8.1 mPa·s and 211.2 ± 11 mPa·s
299.15 K | 198.1 ± 9.4 mPa·s and 197.3 ± 9.4 mPa·s
301.15 K | 177.2 ± 7.8 mPa·s and 175.8 ± 7.7 mPa·s
302.15 K | 167.2 ± 7 mPa·s and 165.9 ± 7 mPa·s
304.15 K | 148.4 ± 5.8 mPa·s and 148.6 ± 5.7 mPa·s
305.15 K | 141.2 ± 5.1 mPa·s and 140.7 ± 5.1 mPa·s
307.15 K | 127.5 ± 4.2 mPa·s and 126.7 ± 4.2 mPa·s
308.15 K | 145.4 ± 44 mPa·s and 120.7 ± 3.8 mPa·s and 120 ± 3.8 mPa·s
313.15 K | 113.6 ± 34 mPa·s and 55 ± 3.4 mPa·s
318.15 K | 90.3 ± 27 mPa·s
323.15 K | 72.8 ± 22 mPa·s and 36 ± 2.2 mPa·s

CC[n+]1ccccc1.N#C[N-]C#N
100 kPa
Conditions | viscosity [mPa·s]
293.15 K | 22.1 ± 2.2
298.15 K | 18.92 ± 1.9
303.15 K | 16.44 ± 1.6
308.15 K | 14.31 ± 1.4
313.15 K | 12.48 ± 1.2
318.15 K | 10.98 ± 1.1

C=CC(C)O (stereo not given)
101.32 kPa
Conditions | viscosity [mPa·s]
308.15 K | 1.294 ± 0.024
313.15 K | 1.144 ± 0.021
318.15 K | 1.015 ± 0.019
323.15 K | 0.9032 ± 0.017

ClC(Cl)C(Cl)Cl
viscosity
Conditions | 298.15 K | 303 K | 303.15 K | 313.15 K | 323.15 K
101 kPa | 1.632 ± 0.034 mPa·s | – | 1.455 ± 0.011 mPa·s and 1.521 ± 0.012 mPa·s | – | –
101.3 kPa | – | – | 1.484 ± 0.01 mPa·s | – | –
101.32 kPa | – | – | 1.45 ± 0.14 mPa·s and 1.455 ± 0.016 mPa·s | 1.367 ± 0.14 mPa·s | 1.18 ± 0.12 mPa·s
101.33 kPa | 1.581 ± 0.016 mPa·s | 1.381 ± 0.036 mPa·s | 1.455 ± 0.011 mPa·s | – | 1.075 ± 0.011 mPa·s

CCCCCCN
viscosity
Conditions | 303.15 K | 308.15 K | 313.15 K
101 kPa | 0.6979 ± 0.006 mPa·s and 0.729 ± 0.0081 mPa·s and 0.7123 ± 0.0068 mPa·s | 0.6 ± 0.062 mPa·s and 0.6 ± 0.0079 mPa·s | 0.6134 ± 0.0063 mPa·s
101.33 kPa | 0.7123 ± 0.0068 mPa·s | – | 0.6134 ± 0.0063 mPa·s

CO
Conditions | viscosity
293.15 K, 100 kPa | 0.587 ± 0.005 mPa·s and 0.55 ± 0.15 mPa·s and 0.58 ± 0.006 mPa·s
293.31 K, 101 kPa | 0.589 ± 0.007 mPa·s
297.8 K, 101 kPa | 0.5495 ± 0.0041 mPa·s
298 K, 101.3 kPa | 0.59 ± 0.008 mPa·s
298.15 K, 100 kPa | 0.5417 ± 0.022 mPa·s
298.15 K, 101.33 kPa | 0.5365 ± 0.013 mPa·s and 0.6152 ± 0.022 mPa·s and 0.562 ± 0.011 mPa·s
299 K, 101 kPa | 0.8138 mPa·s
303 K, 100 kPa | 0.5211 ± 0.053 mPa·s and 0.5 ± 0.02 mPa·s
303 K, 101.3 kPa | 0.5773 ± 0.08 mPa·s
303.15 K, 100 kPa | 0.527 ± 0.007 mPa·s
303.15 K, 101.33 kPa | 0.5054 ± 0.013 mPa·s and 0.541 ± 0.0054 mPa·s
303.16 K, 101 kPa | 0.56 ± 0.079 mPa·s
303.21 K, 101 kPa | 0.511 ± 0.006 mPa·s
308.15 K, 100 kPa | 0.498 ± 0.006 mPa·s and 0.491 ± 0.004 mPa·s and 0.4987 ± 0.02 mPa·s
308.15 K, 101.3 kPa | 0.474 ± 0.013 mPa·s
308.56 K, 101 kPa | 0.476 ± 0.006 mPa·s
313 K, 100 kPa | 0.4373 ± 0.044 mPa·s and 0.42 ± 0.02 mPa·s
313 K, 101.3 kPa | 0.455 ± 0.028 mPa·s
313.15 K, 100 kPa | 0.471 ± 0.006 mPa·s and 0.465 ± 0.004 mPa·s
313.15 K, 101.33 kPa | 0.4423 ± 0.011 mPa·s and 0.463 ± 0.0046 mPa·s
318.15 K, 100 kPa | 0.448 ± 0.006 mPa·s and 0.442 ± 0.004 mPa·s and 0.4456 ± 0.018 mPa·s
321.15 K, 101.32 kPa | 0.4101 ± 0.01 mPa·s
322.15 K, 101.32 kPa | 0.4068 ± 0.01 mPa·s
322.9 K, 101 kPa | 0.3997 ± 0.011 mPa·s
323.15 K, 100 kPa | 0.3905 ± 0.0012 mPa·s and 0.428 ± 0.005 mPa·s and 0.421 ± 0.003 mPa·s
323.15 K, 101.3 kPa | 0.396 ± 0.011 mPa·s
323.15 K, 101.32 kPa | 0.401 ± 0.01 mPa·s
323.15 K, 101.33 kPa | 0.3907 ± 0.01 mPa·s and 0.406 ± 0.0041 mPa·s
